31 compounds from PubChem BioAssay (NCI) can be followed below.

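Interpolation was linear, between the two tested concentrations surrounding the appropriate level; five concentrations were tested over 48 hours in 96-well plates. TGI marks complete inhibition of growth.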

The first test relates to LOX IMVI melanoma. Nature of the test: growth of human tumour cells (NCI), 48 h.
The compound `Cc1ccc(C(=O)Nc2ccc(CP(=O)(O)O)cc2CP(=O)(O)O)cc1NC(=O)c1cccc(N)c1` returned a TGI of more than 100 µM.
Turning to `OC1C2[C@@H](O)CCCN2C[C@@H](O)[C@H]1O` (some centres not stated), the TGI is more than 100 µM.
`CN(C)/N=N/c1nc2c(c(=O)n(C)c(=O)n2C)n1C`: the TGI is more than 100 µM.
On to `COc1ccccc1N/C(=C\C(=O)C(=O)NC12CC3CC(CC(C3)C1)C2)c1ccccc1`, for which the TGI is more than 10 µM.
On the same count and under the same terms, as for `CC(C)(C)c1ccc2c(c1)CNCCNCc1cc(C(C)(C)C)ccc1OCC1(CO2)COc2ccc(C(C)(C)C)cc2CNCCNCc2cc(C(C)(C)C)ccc2OC1`, the figure is more than 100 µM; as for `CCN(CC)CCc1c2c(nc3ccccc13)C(=O)c1cccnc1C2=O`, 2.31 µM; as for `CCN1CC2=C(NC(=S)NC2c2ccc(Cl)cc2)/C(=C/c2ccc(Cl)cc2)C1` (configuration not stated), more than 100 µM.
Same read-out and setting: as for `CN1C(=O)N(c2ccccc2)C2(CCN(CC3COc4ccccc4O3)CC2)C1=O` (configuration not stated), the figure is more than 100 µM; as for `O=C(O)c1c2c(cc3c1CC1(Cc4ccccc4C1)C3)CCC2`, 74.4 µM.
For the compound `OCC1CCCCCCCCCCC12SCCCS2` (configuration not stated), the TGI is more than 100 µM.
Turning to `O=C(O)c1cc2c(cc1CC(Cc1ccc3c(c1)CCC3)C(=O)O)CCC2` (configuration not stated), the TGI is more than 100 µM.
Turning to `CC(C)=CCOC(=O)C(C)=[N+]=[N-]`, the TGI is more than 100 µM.
Regarding `O=C1CCC[C@@H]2NC[C@@H](c3ccc4c(c3)OCO4)[C@H]12`, the TGI is more than 25 µM.
Still for that read-out and setting: under `O=C(Nc1ccc(Br)cc1)c1c(-c2ccccc2)c2ccc(O)cc2oc1=O` stands more than 10 µM; under `CC(C)c1ccc2[nH]c(O)c(-c3[nH]c4ccccc4c3N=O)c2c1`, 17.7 µM.
Compound `Cc1nc2c(sc(=S)n2-c2ccccc2)c2nc3ncccc3n12` returned a TGI of more than 100 µM.
On the same count and under the same terms, under `CCCc1cc(=O)c2c(C)c3[nH]c4ccc(Cl)cc4c3c(C)c2[nH]1` stands 3.33 µM.
Turning to `Cc1nnc(Nc2ccccc2)o1`, the TGI was more than 100 µM.

The subject of another test is SF-539 CNS. Nature of the test: growth of human tumour cells (NCI), 48 h.
In turn, `NC(C(F)(F)F)(C(F)(F)F)P(=O)(Cc1ccccc1)Cc1ccccc1` showed a TGI of more than 100 µM.
Still for that read-out and setting: as for `COc1ccc(C2CC(c3c(O)ccc4ccccc34)=NN2c2ccc([N+](=O)[O-])cc2[N+](=O)[O-])cc1OC` (configuration not stated), the figure is more than 79.8 µM.
For the compound `S=C(N/N=C\C=N/NC(=S)N1CCCCC1)N1CCCCC1`, the TGI was more than 100 µM.
For the compound `CN1C(=O)C2C(=O)N(Cc3ccccc3)CC(=O)N2c2cccnc21` (configuration not stated), the TGI is more than 100 µM.
With `C=C1CC(COc2cc(=O)oc3ccccc23)(c2ccccc2)OC1=O` (configuration not stated), the TGI stood at 7.69 µM.
As to `CN(C)CCCOc1nc2c(c(=O)n(C)c(=O)n2C)n1C` (tested in a mixture with another compound), the TGI stood at 58.3 µM.
The same measure, in the same setting: under `Cc1cc(N(CCC#N)CCC#N)ccc1/C=N/NC(=O)c1cc(Cl)ccc1O` stands more than 100 µM; under `Brc1ccc(CCNCCN2CCCCC2)cc1`, 23.3 µM.
In turn, `Cc1ccc(C(=O)Nc2ccc(CP(=O)(O)O)cc2CP(=O)(O)O)cc1NC(=O)c1cccc(N)c1` displayed a TGI of more than 100 µM.
As for `OC1C2[C@@H](O)CCCN2C[C@@H](O)[C@H]1O` (some centres not stated), the TGI is more than 100 µM.
For `COc1ccccc1N/C(=C\C(=O)C(=O)NC12CC3CC(CC(C3)C1)C2)c1ccccc1`, the TGI is more than 10 µM.
Same read-out and setting: under `CC(C)(C)c1ccc2c(c1)CNCCNCc1cc(C(C)(C)C)ccc1OCC1(CO2)COc2ccc(C(C)(C)C)cc2CNCCNCc2cc(C(C)(C)C)ccc2OC1` stands 2.76 µM.
Still for that read-out and setting: under `Nc1cc(CO)cc(Nc2nc3ccc(Cl)cc3c3[nH]c4ccccc4c23)c1` stands 14.1 µM; under `CN1C(=O)N(c2ccccc2)C2(CCN(CC3COc4ccccc4O3)CC2)C1=O` (configuration not stated), more than 100 µM.
`Oc1ccc(/C=C/c2cc(O)cc(O)c2)cc1` came in with a TGI of more than 100 µM.
With `O=C(O)c1c2c(cc3c1CC1(Cc4ccccc4C1)C3)CCC2`, the TGI is more than 100 µM.
On the same count and under the same terms, under `O=C(O)c1cc2c(cc1CC(Cc1ccc3c(c1)CCC3)C(=O)O)CCC2` (configuration not stated) stands more than 100 µM; under `O=C(Nc1ccc(Br)cc1)c1c(-c2ccccc2)c2ccc(O)cc2oc1=O`, more than 10 µM.
As to `CCCc1cc(=O)c2c(C)c3[nH]c4ccc(Cl)cc4c3c(C)c2[nH]1`, the TGI worked out at 3.56 µM.
On the same count and under the same terms, as for `Cc1nnc(Nc2ccccc2)o1`, the figure is more than 100 µM.

Another test relates to UACC-62 melanoma. Briefly: growth of human tumour cells (NCI), 48 h.
As to `NC(C(F)(F)F)(C(F)(F)F)P(=O)(Cc1ccccc1)Cc1ccccc1`, the TGI is more than 100 µM.
For `COc1ccc(C2CC(c3c(O)ccc4ccccc34)=NN2c2ccc([N+](=O)[O-])cc2[N+](=O)[O-])cc1OC` (configuration not stated), the TGI was more than 100 µM.
On to `S=C(N/N=C\C=N/NC(=S)N1CCCCC1)N1CCCCC1`, for which the TGI was more than 100 µM.
On the same count and under the same terms, under `CN1C(=O)C2C(=O)N(Cc3ccccc3)CC(=O)N2c2cccnc21` (configuration not stated) stands more than 100 µM; under `C=C1CC(COc2cc(=O)oc3ccccc23)(c2ccccc2)OC1=O` (configuration not stated), 2.92 µM.
As for `O=C(O)CSc1nnc(COc2ccc(Cl)cc2)n1-c1ccccc1`, the TGI was more than 100 µM.
Take `CN(C)CCCOc1nc2c(c(=O)n(C)c(=O)n2C)n1C` (tested in a mixture with another compound): the TGI came to 6.42 µM.
Regarding `C[N+]1=C2[B-](C(C)(C)C)=[N+](C(C)(C)C)[B-]2(C(C)(C)C)[N+](C)=C2[B-](C(C)(C)C)=[N+](C(C)(C)C)[B-]21C(C)(C)C` (configuration not stated), the TGI is more than 100 µM.
Take `Cc1cc(N(CCC#N)CCC#N)ccc1/C=N/NC(=O)c1cc(Cl)ccc1O`: the TGI is more than 100 µM.
Same read-out and setting: as for `Cc1ccc(C(=O)Nc2ccc(CP(=O)(O)O)cc2CP(=O)(O)O)cc1NC(=O)c1cccc(N)c1`, the figure is more than 100 µM; as for `OC1C2[C@@H](O)CCCN2C[C@@H](O)[C@H]1O` (some centres not stated), more than 100 µM; as for `CN(C)/N=N/c1nc2c(c(=O)n(C)c(=O)n2C)n1C`, more than 100 µM.
The same measure, in the same setting: as for `CC(C)(C)c1ccc2c(c1)CNCCNCc1cc(C(C)(C)C)ccc1OCC1(CO2)COc2ccc(C(C)(C)C)cc2CNCCNCc2cc(C(C)(C)C)ccc2OC1`, the figure is 2.76 µM; as for `CCN(CC)CCc1c2c(nc3ccccc13)C(=O)c1cccnc1C2=O`, 2.97 µM; as for `Nc1cc(CO)cc(Nc2nc3ccc(Cl)cc3c3[nH]c4ccccc4c23)c1`, 5.55 µM.
`O=C(CC(=O)n1nc(-c2ccccc2)c(N=Nc2ccccc2C(=O)O)c1-c1ccccc1)Nc1ccc(Cl)cc1` registered a TGI of more than 100 µM.
Regarding `CCN1CC2=C(NC(=S)NC2c2ccc(Cl)cc2)/C(=C/c2ccc(Cl)cc2)C1` (configuration not stated), the TGI is more than 100 µM.
Same read-out and setting: under `CN1C(=O)N(c2ccccc2)C2(CCN(CC3COc4ccccc4O3)CC2)C1=O` (configuration not stated) stands more than 100 µM; under `Oc1ccc(/C=C/c2cc(O)cc(O)c2)cc1`, more than 100 µM.
As to `O=C(O)c1c2c(cc3c1CC1(Cc4ccccc4C1)C3)CCC2`, the TGI is more than 100 µM.
On the same count and under the same terms, under `OCC1CCCCCCCCCCC12SCCCS2` (configuration not stated) stands more than 100 µM; under `CC(C)=CCOC(=O)C(C)=[N+]=[N-]`, more than 100 µM.
On the same count and under the same terms, under `O=C1CCC[C@@H]2NC[C@@H](c3ccc4c(c3)OCO4)[C@H]12` stands more than 25 µM; under `CC(C)c1ccc2[nH]c(O)c(-c3[nH]c4ccccc4c3N=O)c2c1`, 20.6 µM.
